Source: the OPERA property sets (Mansouri et al. 2018)
Where a SMILES comes first, the peptide text is derived from it.

| SMILES | logP |
| --- | --- |
| Cc1c(O)c(=O)ccn1CCCOC(=O)c1ccccc1 | 1.25 |
| Cc1ccccc1C1CCc2c(C(=O)N(C)C)cn3c(C)c(C)nc3c2O1 (stereo not drawn) | 3.5 |
| CCOP(=O)(NC(C)CC)Oc1cc(C)ccc1[N+](=O)[O-] (stereo not drawn) | 2.73 |
| CCC(C)C(N)C(=O)NC(C(=O)NC(C(=O)O)C(C)O)C(C)CC (stereo not drawn) (H-Ile-Ile-Thr-OH; configuration not given here) | -2.23 |
| O=C(O)CCCCON=C(c1cccc(C(F)(F)F)c1)c1cnccn1 | 3.26 |
| OCC1OC(n2cnc3c(NCc4ccco4)ncnc32)C(O)C1O (stereo not drawn) | 0.52 |
| CC(C)CC(NC(=O)C(NC(=O)C(CC(C)C)NC(=O)C(N)C(C)C)C(C)C)C(=O)O (stereo not drawn) (H-VLVL-OH; configuration not given here) | -1.23 |
| COc1cc(OS(C)(=O)=O)ccc1-c1cn2cccnc2n1 | 1.05 |
| C[C@@H]1CN(c2c(F)c(N)c3c(=O)c(C(=O)O)cn(C4CC4)c3c2F)C[C@H](C)N1 | -0.02 |
| O=C1N=C(N2CCOCC2)CN1Cc1ccccc1Cl | 1 |
| CC(C)C(NC(=O)C(N)Cc1ccccc1)C(=O)O (stereo not drawn) (H-Phe-Val-OH; configuration not given here) | -1.68 |
| CCCOCCCNc1ncnc2c1ncn2C1OC(CO)C(O)C1O (stereo not drawn) | 0.81 |
| Cc1cc2cc3ccc(=O)oc3c(C)c2o1 | 2.93 |
| O=C1c2cc(O)ccc2OCN1CCO[N+](=O)[O-] | 1.63 |
| CCN(CC)C(=O)[C@]1(c2ccccc2)C[C@@H]1CN | 2.03 |
| Cn1c(N)nc2ncc(-c3ccccc3)cc21 | 2.23 |
| Cc1cccc(C)c1CCN | 2.38 |
| COc1ccc(NC(=O)OCCN2CCCCC2)cc1 | 2.95 |
| Nc1nnnn1-c1cc(Cl)ccc1Cl | 1.61 |
| Cc1nc2ccccc2c(=O)n1CC(=O)NNc1ccccc1 | 1.34 |
| Cc1cccc(C)c1OCCN(C)C | 2.74 |
| CC(=O)OC(C)(C)C1CCC2(C)CCCC(O)C2C1 (stereo not drawn) | 3.62 |

| SMILES | logP |
| --- | --- |
| CC(C)(C)OC(=O)NC(Cc1c[nH]c2ccccc12)C(=O)O (stereo not drawn) | 2.65 |
| CSCCC(NC(=O)C(Cc1ccccc1)NC(=O)CNC(=O)C(C)NC(=O)C(N)Cc1ccc(O)cc1)C(=O)O (stereo not drawn) | -0.59 |
| O=C(O)CCCCON=C(c1ccccc1)c1cncnc1 | 2.65 |
| CC(C)NC(CO)C(O)c1ccccc1 (stereo not drawn) | 1.19 |
| CNC(=O)Cn1cccc(O)c1=O | -1.15 |
| NC(Cc1c[nH]c2ccccc12)C(=O)NC(Cc1c[nH]c2ccccc12)C(=O)NC(Cc1c[nH]c2ccccc12)C(=O)O (stereo not drawn) (H-Trp-Trp-Trp-OH; configuration not given here) | 0.66 |
| OCC1OC(Oc2ccc(F)cc2)C(O)C(O)C1O (stereo not drawn) | -0.42 |
| O=C1c2ccccc2-c2nnc(-c3ccccc3O)cc21 | 3.15 |
| O=C(NC(Cc1c[nH]c2ccccc12)C(=O)O)OCC1c2ccccc2-c2ccccc21 (stereo not drawn) | 4.93 |
| CN1CCN2c3ccccc3Cc3ccccc3C2C1 (stereo not drawn) | 4.24 |
| CCOC(=O)C(C)(Cc1ccccc1)S(=O)(=O)c1ccc([N+](=O)[O-])cc1 (stereo not drawn) | 3.4 |
| CCC(C)C(NC(=O)C(CCCNC(=N)N)NC(C)=O)C(=O)NC(Cc1ccccc1)C(N)=O (stereo not drawn) (Ac-Arg-Ile-Phe-NH2; configuration not given here) | -0.04 |
| Cc1cn(C2C=CC(COP3(=O)OCc4cc(Cl)ccc4O3)O2)c(=O)[nH]c1=O (stereo not drawn) | 0.88 |
| Clc1cc(Cl)c2c(c1)Oc1cc(Cl)c(Cl)c(Cl)c1O2 | 6.4 |
| CCN(CC)CCNC(=O)c1c(C)cc(N)cc1C | 0.98 |
| Cc1ccc(OCC2CN=C(N)O2)c(C)c1 (stereo not drawn) | 2.23 |
| COc1ccccc1NC(=O)OCCN1CCCCC1 | 3.11 |
| CCOc1ccccc1CNc1[nH]cnc2ncnc1-2 | 2.72 |
| c1ccc(CCN2CCN(CCn3nc4ccccc4n3)CC2)cc1 | 3.72 |
| CC#CC(O)c1c(C)nc2c3c(c(C(=O)N(C)C)cn12)CCC(c1ccccc1)O3 (stereo not drawn) | 2.7 |
| C[C@]12CC[C@@H](O)C[C@@H]1CC[C@@H]1[C@@H]2CC[C@]2(C)[C@@H](O)CC[C@@H]12 | 4.16 |
| Cc1ccc(C(=O)O)cc1[N+](=O)[O-] | 2.35 |

| SMILES | logP |
| --- | --- |
| CCOC(=O)CCCn1cc([N+](=O)[O-])nc1C | 0.58 |
| Nc1nnnn1-c1cccc(O)c1 | 0.56 |
| OCCCCNc1[nH]cnc2ncnc1-2 | 0.32 |
| NC(Cc1ccc(Cl)cc1)C(=O)O (stereo not drawn) | -0.47 |
| O=C(Cn1ncc([N+](=O)[O-])n1)NCCO | -0.82 |
| Nc1nc(N)c2c(Oc3ccccc3)cccc2n1 | 2.78 |
| CCc1cccc(COC(=O)C2C(C=C(C)C)C2(C)C)c1 (stereo not drawn) | 6.51 |
| CC(=O)OC(C)(C)C1CCC2(C)CCCC(CO)C2C1 (stereo not drawn) | 3.49 |
| Cn1c([N+](=O)[O-])cnc1C1=NOC2CCCCC12 (stereo not drawn) | 2.22 |
| CCCCCCCCNCCO | 2.75 |
| CN(C)CCOc1ccc(Cl)cc1 | 3.05 |
| O=C(O)Cc1ccccc1Nc1c(F)cccc1F | 3.57 |
| CSCC(NC(C)=O)C(N)=O (stereo not drawn) | -0.6 |
| CC(=O)c1ccc([N+](=O)[O-])cc1O | 2.05 |
| c1ccc2c(c1)OCC(Cc1ncc[nH]1)O2 (stereo not drawn) | 1.92 |
| Nc1nnnn1-c1ccc(Br)cc1 | 1.63 |
| O=[N+]([O-])c1nccn1CC(O)C(O)CF (stereo not drawn) | -0.77 |
| CC(C)C(=O)OCC1OC(n2cc(I)c(=O)[nH]c2=O)CC1O (stereo not drawn) | 0.84 |
| Cc1ccc(CO)c(C=NNC(=O)c2ccc(C(C)(C)C)cc2)c1O | 4.73 |
| CC(C)(O)C1CCC2(C)CCC3(CO3)C2C1 (stereo not drawn) | 2.9 |
| O=[N+]([O-])c1ccc(CCBr)cc1 | 2.9 |
| NC(Cc1c[nH]c2ccccc12)C(=O)NC(Cc1ccccc1)C(=O)O (stereo not drawn) | -0.47 |

| SMILES | logP |
| --- | --- |
| COc1cc(OC)nc(Sc2cccc(Oc3ccccc3)c2C(=O)O)n1 | 4.15 |
| O=C1C=C(N2CCCCC2)C(=O)N1c1ccc(F)cc1 | 2.6 |
| Clc1ccccc1N1CCN(CCCOn2nnc3ccccc32)CC1 | 4.1 |
| CCOc1cccc2nc(N)nc(N)c12 | 1.69 |
| COc1cc(-n2c(C(F)(F)F)nn(C)c2=S)cc(OC)c1OC | 2.04 |
| COC(=O)C(C)NP(=O)(OCC1C=CC(n2cc(C)c(=O)[nH]c2=O)O1)Oc1ccccc1 (stereo not drawn) | 1.04 |
| Cc1oc2nc3oc(=O)c(C)c(C)c3cc2c1C | 2.71 |
| CC=C(C)C(=O)OC1CC(C)CCC1C(C)C (stereo not drawn) | 6.2 |
| CCCc1nc(NC(=O)c2ccccc2)nc(N2CCOCC2)n1 | 1.61 |
| CCNC(=O)NS(=O)(=O)c1cnccc1NC1CCCCCCC1 | 3.57 |
| CCN(CC)c1ccc(-n2c(C(F)(F)F)nn(C)c2=S)cc1 | 3.79 |
| COc1cccc2c1C(=O)c1c(O)c3c(c(O)c1C2=O)CC(O)(C(=O)CO)CC3OC1CC(N(C)C)C(O)C(C)O1 (stereo not drawn) | 1.28 |
| CC(C)NC(=NC#N)NS(=O)(=O)c1cnccc1Nc1cccc(Cl)c1 | 2.14 |
| CC(C)=CC1C(C(=O)OCc2cccc(I)c2)C1(C)C (stereo not drawn) | 6.61 |
| CS(=O)(=O)c1cccc2nc(N)nc(N)c12 | 0.63 |
| COc1coc(CCl)cc1=O | 0.16 |
| COc1ccc(C(C)=O)c(O)c1 | 1.98 |
| CC(C)CC(N)C(=O)NC(CC(C)C)C(=O)N1CCCC1C(=O)O (stereo not drawn) (H-Leu-Leu-Pro-OH; configuration not given here) | -1.58 |
| COc1ccc(-c2cc(=O)ss2)cc1 | 3.19 |
| O=C1NC(c2ccccc2)(c2ccccc2)C(=O)N1CO | 2.23 |
| COCc1[nH]c(-c2ccc(OCC(O)CNCCc3ccc(OC)c(OC)c3)cc2)nc1C (stereo not drawn) | 2.8 |
| O=C(O)CCCCON=C(c1ccccc1)c1ccncn1 | 2.27 |
